Assay results taken from patent publication US8937041B2, “Macrocyclic hepatitis C serine protease inhibitors” (AbbVie, Inc., priority 2010, dated 2015).
pEC50, pIC50: −log10 of the molar value.

Experiments:
[1] = target: recombinant HCV NS3 protease, genotype 1a (Hepatitis C virus genotype 1a, UniProt P27958); assay: biochemical; conditions: genotype 1a NS3 protease; read-out: IC50 in a 1a enzyme assay
[2] = target: recombinant HCV NS3 protease, genotype 1b (Hepatitis C virus genotype 1b, UniProt Q9WMX2); assay: biochemical; conditions: genotype 1b NS3 protease; read-out: IC50 in a 1b enzyme assay
Sequence of recombinant HCV NS3 protease, genotype 1b (Q9WMX2 1027-1657, other chains not shown): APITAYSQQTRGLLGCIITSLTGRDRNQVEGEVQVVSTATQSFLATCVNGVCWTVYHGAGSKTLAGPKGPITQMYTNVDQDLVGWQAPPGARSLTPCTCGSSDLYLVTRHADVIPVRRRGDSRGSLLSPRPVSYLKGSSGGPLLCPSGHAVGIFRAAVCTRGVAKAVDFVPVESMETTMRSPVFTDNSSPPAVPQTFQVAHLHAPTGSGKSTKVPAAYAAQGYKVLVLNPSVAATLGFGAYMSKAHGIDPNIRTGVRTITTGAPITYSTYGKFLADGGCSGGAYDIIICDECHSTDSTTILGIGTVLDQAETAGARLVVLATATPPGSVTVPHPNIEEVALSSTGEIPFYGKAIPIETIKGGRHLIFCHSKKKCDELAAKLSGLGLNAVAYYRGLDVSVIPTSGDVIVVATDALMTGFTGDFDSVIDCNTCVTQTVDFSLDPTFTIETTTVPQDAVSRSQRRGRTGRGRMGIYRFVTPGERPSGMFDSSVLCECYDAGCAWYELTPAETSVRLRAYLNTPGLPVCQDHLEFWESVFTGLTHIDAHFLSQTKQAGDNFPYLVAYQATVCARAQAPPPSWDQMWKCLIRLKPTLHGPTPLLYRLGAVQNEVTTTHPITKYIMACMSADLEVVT

HLM stability = type: in vitro ADME
[3] = system: HCV genotype 1a replicon (1a-H77); assay: microbe, parasite or virus in culture; type: cell-based; conditions: Hepatitis C virus, read-out: EC50 in a replicon cell line assay in a 1a-H77 background
[4] = system: HCV genotype 1b replicon (1b-Con-1); assay: microbe, parasite or virus in culture; type: cell-based; conditions: Hepatitis C virus, read-out: EC50 in a replicon cell line assay in a 1b-con1 background

Sequence of recombinant HCV NS3 protease, genotype 1a (P27958 1027-1657, other chains not shown): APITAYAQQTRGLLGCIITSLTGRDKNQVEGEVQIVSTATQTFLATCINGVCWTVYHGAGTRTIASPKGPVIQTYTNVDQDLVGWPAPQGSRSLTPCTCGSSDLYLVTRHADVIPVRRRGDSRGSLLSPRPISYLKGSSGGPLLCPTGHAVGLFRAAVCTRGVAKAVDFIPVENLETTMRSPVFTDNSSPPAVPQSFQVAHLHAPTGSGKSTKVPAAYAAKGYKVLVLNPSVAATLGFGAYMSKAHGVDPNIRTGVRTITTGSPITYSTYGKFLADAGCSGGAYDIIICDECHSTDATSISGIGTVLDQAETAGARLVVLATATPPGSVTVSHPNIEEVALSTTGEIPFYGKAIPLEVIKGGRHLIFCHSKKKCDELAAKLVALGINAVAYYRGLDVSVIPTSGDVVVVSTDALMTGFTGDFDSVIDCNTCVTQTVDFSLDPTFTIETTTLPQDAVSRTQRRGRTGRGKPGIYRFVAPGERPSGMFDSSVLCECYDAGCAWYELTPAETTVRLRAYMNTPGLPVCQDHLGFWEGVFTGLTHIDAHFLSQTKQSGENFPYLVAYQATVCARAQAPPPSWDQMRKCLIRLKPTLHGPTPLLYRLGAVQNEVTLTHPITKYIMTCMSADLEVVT

pIC50 [1]	pIC50 [2]	HLM stability value (HLM stability)	Structure (SMILES)	pEC50 [3]	pEC50 [4]
< 9.00	< 9.00	50 to 100 µL/min/mg	CC(C)(C)OC(=O)N[C@H]1CCCCCC(F)(F)C[C@@H]2C[C@@]2(C(=O)NS(=O)(=O)C2CC2)NC(=O)[C@@H]2C[C@@H](Oc3cnc4ccccc4n3)CN2C1=O [Example 1, tert-butyl(2R,6S,13aS,14aR,16aS)-14a-(cyclopropylsulfonylcarbamoyl)-12,12-difluoro-5,16-dioxo-2-(quinoxalin-2-yloxy)octadecahydrocyclopropa[e]pyrrolo[1,2-a][1,4]diazacyclopentadecin-6-ylcarbamate]	–	–
–	–	< 50 µL/min/mg	Cc1cc(C(=O)N[C@H]2CCCCCC(F)(F)C[C@@H]3C[C@@]3(C(=O)NS(=O)(=O)C3CC3)NC(=O)[C@@H]3C[C@@H](Oc4cnc5ccccc5n4)CN3C2=O)no1 [Example 2, N-((2R,6S,13aS,14aR,16aS)-14a-(cyclopropylsulfonylcarbamoyl)-12,12-difluoro-5,16-dioxo-2-(quinoxalin-2-yloxy)octadecahydrocyclopropa[e]pyrrolo[1,2-a][1,4]diazacyclopentadecin-6-yl)-5-methylisoxazole-3-carboxamide]	–	–
9.30 to 10.00	9.30 to 10.00	–	Cc1nc2ccccc2nc1O[C@@H]1C[C@H]2C(=O)N[C@]3(C(=O)NS(=O)(=O)C4CC4)C[C@H]3CC(F)(F)CCCCC[C@H](NC(=O)OC(C)(C)C)C(=O)N2C1 [Example 3, tert-butyl (2R,6S,13aS,14aR,16aS)-14a-(cyclopropylsulfonylcarbamoyl)-12,12-difluoro-2-(3-methylquinoxalin-2-yloxy)-5,16-dioxooctadecahydrocyclopropa[e]pyrrolo[1,2-a][1,4]diazacyclopentadecin-6-ylcarbamate]	–	–
–	–	< 50 µL/min/mg	Cc1cc(C(=O)N[C@H]2CCCCCC(F)(F)C[C@@H]3C[C@@]3(C(=O)NS(=O)(=O)C3CC3)NC(=O)[C@@H]3C[C@@H](Oc4nc5ccccc5nc4C)CN3C2=O)no1 [Example 4, N-((2R,6S,13aS,14aR,16aS)-14a-(cyclopropylsulfonylcarbamoyl)-12,12-difluoro-2-(3-methylquinoxalin-2-yloxy)-5,16-dioxooctadecahydrocyclopropa[e]pyrrolo[1,2-a][1,4]diazacyclopentadecin-6-yl)-5-methylisoxazole-3-carboxamide]	–	–
9.00 to 9.30	9.00 to 9.30	–	CC(C)(C)OC(=O)N[C@H]1CCCCCC(F)(F)C[C@@H]2C[C@@]2(C(=O)NS(=O)(=O)C2CC2)NC(=O)[C@@H]2C[C@@H](Oc3nc4ccccc4nc3-c3ccccc3)CN2C1=O [Example 5, tert-butyl (2R,6S ,13aS,14aR,16aS)-14a-(cyclopropylsulfonylcarbamoyl)-12,12-difluoro-5,16-dioxo-2-(3-phenylquinoxalin-2-yloxy)octadecahydrocyclopropa[e]pyrrolo[1,2-a][1,4]diazacyclopentadecin-6-ylcarbamate]	–	–
–	–	< 50 µL/min/mg	Cc1cc(C(=O)N[C@H]2CCCCCC(F)(F)C[C@@H]3C[C@@]3(C(=O)NS(=O)(=O)C3CC3)NC(=O)[C@@H]3C[C@@H](Oc4nc5ccccc5nc4-c4ccccc4)CN3C2=O)no1 [Example 6, N-((2R,6S,13aS,14aR,16aS)-14a-(cyclopropylsulfonylcarbamoyl)-12,12-difluoro-5,16-dioxo-2-(3-phenylquinoxalin-2-yloxy)octadecahydrocyclopropa[e]pyrrolo[1,2-a][1,4]diazacyclopentadecin-6-yl)-5-methylisoxazole-3-carboxamide]	–	–
9.30 to 10.00	9.30 to 10.00	–	Cc1cc(C(=O)N[C@H]2CCCCCC(F)(F)C[C@@H]3C[C@@]3(C(=O)NS(=O)(=O)C3CC3)NC(=O)[C@@H]3C[C@@H](Oc4nc5ccccc5nc4-c4cc5ccccc5o4)CN3C2=O)no1 [Example 16, N-((2R,6S,13aS,14aR,16aS)-2-(3-(benzofuran-2-yl)quinoxaline-2-yloxy)-14a-(cyclopropylsulfonylcarbamoyl)-12,12-difluoro-5,16-dioxooctadecahydrocyclopropa[e]pyrrolo[1,2-a][1,4]diazacyclopentadecin-6-yl)-5-methylisoxazole-3-carboxamide]	–	–
9.30 to 10.00	> 10.00	< 50 µL/min/mg	Cn1ccc(C(=O)N[C@H]2CCCCCC(F)(F)C[C@@H]3C[C@@]3(C(=O)NS(=O)(=O)C3CC3)NC(=O)[C@@H]3C[C@@H](Oc4nc5ccccc5nc4-c4cc5ccccc5o4)CN3C2=O)n1 [Example 17, (2R,6S,13aS,14aR,16aS)-2-(3-(benzofuran-2-yl)quinoxaline-2-yloxy)-N-(cyclopropylsulfonyl)-12,12-difluoro-6-(1-methyl-1H-pyrazole-3-carboxamido)-5,16-dioxooctadecahydrocyclopropa[e]pyrrolo [1,2-a][1,4]diazacyclopentadecine-14a-carboxamide]	–	–
–	–	–	Cc1cc(C(=O)N[C@H]2CCCCCC(F)(F)C[C@@H]3C[C@@]3(C(=O)NS(=O)(=O)C3CC3)NC(=O)[C@@H]3C[C@@H](Oc4nc5ccccc5c5ccccc45)CN3C2=O)no1 [Example 18, N-((2R,6S,13aS,14aR,16aS)-14a-(cyclopropylsulfonylcarbamoyl)-12,12-difluoro-5,16-dioxo-2-(phenanthridin-6-yloxy)octadecahydrocyclopropa[e]pyrrolo[1,2-a][1,4]diazacyclopentadecin-6-yl)-5-methylisoxazole-3-carboxamide]	> 9.00	> 9.00
–	–	< 50 µL/min/mg	Cc1cnc(C(=O)N[C@H]2CCCCCC(F)(F)C[C@@H]3C[C@@]3(C(=O)NS(=O)(=O)C3CC3)NC(=O)[C@@H]3C[C@@H](Oc4nc5ccccc5c5ccccc45)CN3C2=O)cn1 [Example 20, (2R,6S,13aS,14aR,16aS)-N-(cyclopropylsulfonyl)-12,12-difluoro-6-(5-methylpyrazine-2-carboxamido)-5,16-dioxo-2-(phenanthridin-6-yloxy)octadecahydrocyclopropa[e]pyrrolo[1,2-a][1,4]diazacyclopentadecine-14a-carboxamide]	–	–
–	–	< 50 µL/min/mg	Cc1cc(C(=O)N[C@H]2CCCCCC(F)(F)C[C@@H]3C[C@@]3(C(=O)NS(=O)(=O)C3CC3)NC(=O)[C@@H]3C[C@@H](Oc4nc5ccccc5c5ccccc45)CN3C2=O)nn1C [Example 21, (2R,6S,13aS,14aR,16a5)-N-(cyclopropylsulfonyl)-6-(1,5-dimethyl-1H-pyrazole-3-carboxamido)-12,12-difluoro-5,16-dioxo-2-(phenanthridin-6-yloxy)octadecahydrocyclopropa[e]pyrrolo[1,2-a][1,4]diazacyclopentadecine-14a-carboxamide]	–	–

Structure (SMILES)	pIC50 [1]	pIC50 [2]	HLM stability value (HLM stability)	pEC50 [3]	pEC50 [4]
CCc1nc2ccccc2nc1O[C@@H]1C[C@H]2C(=O)N[C@]3(C(=O)NS(=O)(=O)C4CC4)C[C@H]3CC(F)(F)CCCCC[C@H](NC(=O)OC(C)(C)C)C(=O)N2C1 [Example 7, tert-butyl (2R,6S,13aS,14aR,16aS)-14a-(cyclopropylsulfonylcarbamoyl)-2-(3-ethylquinoxalin-2-yloxy)-12,12-difluoro-5,16-dioxooctadecahydrocyclopropa[e]pyrrolo [1,2-a][1,4]diazacyclopentadecin-6-ylcarbamate]	9.00 to 9.30	9.30 to 10.00	> 100 µL/min/mg	8.30 to 8.70	8.70 to 9.00
CCc1nc2ccccc2nc1O[C@@H]1C[C@H]2C(=O)N[C@]3(C(=O)NS(=O)(=O)C4(C)CC4)C[C@H]3CC(F)(F)CCCCC[C@H](NC(=O)OC(C)(C)C)C(=O)N2C1 [Example 8, tert-butyl (2R,6S ,13aS,14aR,16aS)-2-(3-ethylquinoxalin-2-yloxy)-12,12-difluoro-14a-(1-methylcyclopropylsulfonylcarbamoyl)-5,16-dioxooctadecahydrocyclopropa[e]pyrrolo[1,2-a][1,4]diazacyclopentadecin-6-ylcarbamate]	9.30 to 10.00	9.30 to 10.00	> 100 µL/min/mg	8.30 to 8.70	8.70 to 9.00
CCc1nc2ccccc2nc1O[C@@H]1C[C@H]2C(=O)N[C@]3(C(=O)NS(=O)(=O)C4CC4)C[C@H]3CC(F)(F)CCCCC[C@H](NC(=O)c3cc(C)on3)C(=O)N2C1 [Example 9, N-((2R,6S ,13aS,14aR,16aS)-14a-(cyclopropylsulfonylcarbamoyl)-2-(3-ethylquinoxalin-2-yloxy)-12,12-difluoro-5,16-dioxooctadecahydrocyclopropa[e]pyrrolo[1,2-a][1,4]diazacyclopentadecin-6-yl)-5-methylisoxazole-3-carboxamide]	9.00 to 9.30	9.30 to 10.00	< 50 µL/min/mg	8.30 to 8.70	8.70 to 9.00
CCc1nc2ccccc2nc1O[C@@H]1C[C@H]2C(=O)N[C@]3(C(=O)NS(=O)(=O)C4(C)CC4)C[C@H]3CC(F)(F)CCCCC[C@H](NC(=O)c3cc(C)on3)C(=O)N2C1 [Example 10, N-((2R,6S,13aS,14aR,16aS)-2-(3-ethylquinoxalin-2-yloxy)-12,12-difluoro-14a-(1-methylcyclopropylsulfonylcarbamoyl)-5,16-dioxooctadecahydrocyclopropa[e]pyrrolo [1,2-a][1,4]diazacyclopentadecin-6-yl)-5-methylisoxazole-3-carboxamide]	–	–	< 50 µL/min/mg	8.30 to 8.70	8.70 to 9.00
CCc1nc2ccccc2nc1O[C@@H]1C[C@H]2C(=O)N[C@]3(C(=O)NS(=O)(=O)C4CC4)C[C@H]3CC(F)(F)CCCCC[C@H](NC(=O)c3ccon3)C(=O)N2C1 [Example 11, N-((2R,6S ,13aS,14aR,16aS)-14a-(cyclopropylsulfonylcarbamoyl)-2-(3-ethylquinoxalin-2-yloxy)-12,12-difluoro-5,16-dioxooctadecahydrocyclopropa[e]pyrrolo[1,2-a][1,4]diazacyclopentadecin-6-yl)isoxazole-3-carboxamide]	9.30 to 10.00	9.30 to 10.00	< 50 µL/min/mg	< 8.30	8.30 to 8.70
